Experimental data: US9023398B2, “Method for improving the aqueous solubility of poorly-soluble substances” (Kabushiki Kaisha Sangi, priority 2009, dated 2015)
Structures can show the parent of a compound that is named as a salt.

How the values were obtained:
[1] = Dissolution test of poorly-soluble substances using 2nd fluid for disintegration test (pH 6.8) of the Japanese Pharmacopoeia; type: physicochemical
Protocol: From initiation of the test, the mixed solution was stirred with a stirrer having a length of 15 mm. The rotation number of the stirrer was 120 rpm, and all of the tests were conducted in a thermostat at 37±0.5° C. Two types of test solutions, namely, distilled water and 2nd fluid for disintegration test (pH 6.8) of the Japanese Pharmacopoeia were used. As such 2nd fluid for disintegration test of the Japanese Pharmacopoeia, a solution prepared by diluting the 10-fold concentration solution of Kanto Kagaku Co., Ltd. with distilled water was used.

[2] = Protocol: The rotation number of the stirrer was 120 rpm, and all of the tests were conducted in a thermostat at 37±0.5° C. Two types of test solutions, namely, distilled water and 2nd fluid for disintegration test (pH 6.8) of the Japanese Pharmacopoeia were used. As such 2nd fluid for disintegration test of the Japanese Pharmacopoeia, a solution prepared by diluting the 10-fold concentration solution of Kanto Kagaku Co., Ltd. with distilled water was used.
A comparative test was carried out in the same manner as that described above with the exception that a poorly-soluble substance or the like was used in an amount equal to that of a substance with improved aqueous solubility, instead of the substance with improved aqueous solubility.
1 mL of the solution was sampled in an Eppendorf centrifuge tube, 1, 3, 10, 30, 60, 180 and 360 minutes after initiation of the test. The thus sampled solution was centrifuged at 12,000 rpm for 5 minutes. […] In the case of the comparative test, the poorly-soluble substance or the like, which had not been dissolved in the solution, was removed. An aliquot of this supernatant was immediately frozen. The frozen sample was freeze-dried, and it was then used as a sample in the measurement of the amount of the substance with improved aqueous solubility, which had been dissolved in the test solution. The dissolved poorly-soluble substance was measured mainly using a dual wavelength absorption photometer.
Moreover, a comparative test was carried out using silica fume instead of the calcium compound microparticles. Specifically, a coating treatment was carried out according to the same method as that described in the above section “6-1.

[3] = Dissolution test of poorly-soluble substances using distilled water; type: physicochemical

| Compound | solubility-improving effect [2] | other results |
| --- | --- | --- |
| O=C(Nc1ccc(Cl)cc1)Nc1ccc(Cl)c(Cl)c1 [10-1, Trichlorocarbanilide] | a solubility-improving effect was obtained | Dissolved amount ([1]; 2nd fluid for disintegration test, elution time 1 min): 0.0 µg/mL; Dissolved amount ([1]; 2nd fluid for disintegration test, elution time 3 min): 0.3 µg/mL; Dissolved amount ([1]; 2nd fluid for disintegration test, elution time 10 min): 0.6 µg/mL; Dissolved amount ([1]; 2nd fluid for disintegration test, elution time 30 min): 0.8 µg/mL; Dissolved amount ([1]; 2nd fluid for disintegration test, elution time 60 min): 1.1 µg/mL; Dissolved amount ([1]; 2nd fluid for disintegration test, elution time 180 min): 1.3 µg/mL; Dissolved amount ([1]; 2nd fluid for disintegration test, elution time 360 min): 1.5 µg/mL; Dissolved amount ([1]; Second disintegration test medium, trichlorocarbanilide, elution time not printed in Table 13): 1.5 µg/mL; Dissolved amount ([3]; Dissolution test using water, elution time 1 min): 0.0 µg/mL; Dissolved amount ([3]; Dissolution test using water, elution time 3 min): 0.1 µg/mL; Dissolved amount ([3]; Dissolution test using water, elution time 10 min): 0.4 µg/mL; Dissolved amount ([3]; Dissolution test using water, elution time 30 min): 0.4 µg/mL; Dissolved amount ([3]; Dissolution test using water, elution time 60 min): 0.4 µg/mL; Dissolved amount ([3]; Dissolution test using water, elution time 180 min): 0.5 µg/mL; Dissolved amount ([3]; Dissolution test using water, elution time 360 min): 0.6 µg/mL; Dissolved amount ([3]; Distilled water, trichlorocarbanilide, elution time not printed in Table 13): 0.6 µg/mL |
| CC1CNc2c(cccc2S(=O)(=O)N[C@@H](CCCNC(=N)N)C(=O)N2CC[C@@H](C)C[C@@H]2C(=O)O)C1 (stereo partly shown) [argatroban] | a solubility-improving effect was obtained | – |
| C[C@H]1[C@H](NC(=O)/C(=N\OC(C)(C)C(=O)O)c2csc(N)n2)C(=O)N1S(=O)(=O)O [aztreonam] | a solubility-improving effect was obtained | – |
| CO/N=C(\C(=O)N[C@@H]1C(=O)N2C(C(=O)O)=C(CSc3nnnn3C)CS[C@H]12)c1csc(N)n1 [cefmenoxime hydrochloride] | a solubility-improving effect was obtained | – |
| CC(C)(O/N=C(\C(=O)N[C@@H]1C(=O)N2C(C(=O)[O-])=C(C[n+]3ccccc3)CS[C@H]12)c1csc(N)n1)C(=O)O [ceftazidime] | a solubility-improving effect was obtained | – |
| CN1CCC[C@@H]1CCO[C@](C)(c1ccccc1)c1ccc(Cl)cc1 [clemastine fumarate] | a solubility-improving effect was obtained | – |
| CN(C)/N=N/c1[nH]cnc1C(N)=O [dacarbazine] | a solubility-improving effect was obtained | – |
| CC(=O)O[C@@]12CO[C@@H]1C[C@H](O)[C@@]1(C)C(=O)[C@H](O)C3=C(C)[C@@H](OC(=O)[C@H](O)[C@@H](NC(=O)OC(C)(C)C)c4ccccc4)C[C@@](O)([C@@H](OC(=O)c4ccccc4)[C@H]21)C3(C)C [docetaxel hydrate] | a solubility-improving effect was obtained | – |
| C[C@]12CC[C@@H]3c4ccc(OC(=O)c5ccccc5)cc4CC[C@H]3[C@@H]1CC[C@@H]2O [estradiol benzoate] | a solubility-improving effect was obtained | – |
| CCCCC(=O)O[C@H]1CC[C@H]2[C@@H]3CCc4cc(O)ccc4[C@H]3CC[C@]12C [estradiol valerate] | a solubility-improving effect was obtained | – |
| C[C@]12CC[C@@H]3c4ccc(O)cc4CC[C@H]3[C@@H]1C[C@@H](O)[C@@H]2O [estriol] | a solubility-improving effect was obtained | – |
| CC/C=C\C/C=C\C/C=C\C/C=C\C/C=C\CCCC(=O)OCC [ethyl icosapentate] | a solubility-improving effect was obtained | – |
| CCCCCC(=O)O[C@]1(C(C)=O)CC[C@H]2[C@@H]3CCC4=CC(=O)CC[C@]4(C)[C@H]3CC[C@@]21C [hydroxyprogesterone caproate] | a solubility-improving effect was obtained | – |
| CC(C)Cc1ccc(C(C)C(=O)O)cc1 (stereo not shown) [ibuprofen] | a solubility-improving effect was obtained | – |
| C[C@@H]1[C@H](O)[C@@H](C)/C=C/C=C/CC/C=C/C=C/C=C/C=C/C(O[C@H]2O[C@H](C)[C@@H](O)[C@H](N)[C@@H]2O)CC2O[C@](O)(CC(O)C(O)CCC(O)CC(O)CC(O)CC(=O)O[C@H]1C)CC(O)C2C(=O)O (stereo partly shown) [nystatin] | a solubility-improving effect was obtained | – |
| CC(=O)O[C@H]1C(=O)[C@@]2(C)[C@H]([C@H](OC(=O)c3ccccc3)[C@]3(O)C[C@H](OC(=O)[C@H](O)[C@@H](NC(=O)c4ccccc4)c4ccccc4)C(C)=C1C3(C)C)[C@]1(OC(C)=O)CO[C@@H]1C[C@@H]2O [paclitaxel] | a solubility-improving effect was obtained | – |
| O=C(O)c1cc(/N=N/c2ccc(S(=O)(=O)Nc3ccccn3)cc2)ccc1O [salazosulfapyridine] | a solubility-improving effect was obtained | – |
| C=CC[C@@H]1/C=C(\C)C[C@H](C)C[C@H](OC)[C@H]2O[C@@](O)(C(=O)C(=O)N3CCCC[C@H]3C(=O)O[C@H](/C(C)=C/[C@@H]3CC[C@@H](O)[C@H](OC)C3)[C@H](C)[C@@H](O)CC1=O)[C@H](C)C[C@@H]2OC [tacrolimus hydrate] | a solubility-improving effect was obtained | – |
